Measurements as given in the supplement of paper PMC10307832.

How the values were obtained:
Assay in all cases: relative viability (nuclei count vs DMSO), 5 days (fraction); higher = more cells survive
[1] = compound: CCN(CCO)CCCC(C)Nc1ccnc2cc(Cl)ccc12 [Hydroxychloroquine] + CC1(C)CCC(c2ccc(Cl)cc2)=C(CN2CCN(c3ccc(C(=O)NS(=O)(=O)c4ccc(N[C@H](CCN5CCOCC5)CSc5ccccc5)c(S(=O)(=O)C(F)(F)F)c4)cc3)CC2)C1 [Navitoclax] (partner 0.5 µM)
How it was run: (§1)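 Cells from lung cancer lines were seeded into 1536-well plates and, one day later, dosed by pin tool. Treatments were either a single drug or a fixed dose of an anchor drug with five library-drug doses (not always all listed) in √10 steps. After 5 days, nuclei were stained in a one-step fixation (final 0.05% Triton X-100, 1% formaldehyde, 1 ug/ml Hoechst) and counted on 4× images, and relative viability is the treated-to-vehicle nuclei ratio, as the median of duplicate plates.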

[2] = compound: CCN(CCO)CCCC(C)Nc1ccnc2cc(Cl)ccc12 [Hydroxychloroquine] + CCNC(=O)c1noc(-c2cc(C(C)C)c(O)cc2O)c1-c1ccc(CN2CCOCC2)cc1 [Luminespib] (partner 0.01 µM)
How it was run: as §1

[3] = compound: CCN(CCO)CCCC(C)Nc1ccnc2cc(Cl)ccc12 [Hydroxychloroquine] + COc1cc2c(Oc3ccc(NC(=O)C4(C(=O)Nc5ccc(F)cc5)CC4)cc3F)ccnc2cc1OCCCN1CCOCC1 [Foretinib] (partner 0.25 µM)
How it was run: as §1

[4] = compound: CCN(CCO)CCCC(C)Nc1ccnc2cc(Cl)ccc12 [Hydroxychloroquine] + C[C@]1(O)C[C@@H](c2nc(-c3ccc4ccc(-c5ccccc5)nc4c3)c3c(N)nccn32)C1 [Linsitinib] (partner 1 µM)
How it was run: as §1

| Cell Line | relative viability ([1]; first compound 0.5 µM) | relative viability ([1]; first compound 1.581 µM) | relative viability ([1]; first compound 5 µM) | relative viability ([1]; first compound 15.81 µM) | relative viability ([1]; first compound 50 µM) | relative viability ([2]; first compound 0.5 µM) | relative viability ([2]; first compound 1.581 µM) | relative viability ([2]; first compound 5 µM) | relative viability ([2]; first compound 15.81 µM) | relative viability ([2]; first compound 50 µM) | relative viability ([3]; first compound 0.5 µM) | relative viability ([3]; first compound 1.581 µM) | relative viability ([3]; first compound 5 µM) | relative viability ([3]; first compound 15.81 µM) | relative viability ([3]; first compound 50 µM) | relative viability ([4]; first compound 0.5 µM) | relative viability ([4]; first compound 1.581 µM) | relative viability ([4]; first compound 5 µM) | relative viability ([4]; first compound 15.81 µM) | relative viability ([4]; first compound 50 µM) |
| --- | --- | --- | --- | --- | --- | --- | --- | --- | --- | --- | --- | --- | --- | --- | --- | --- | --- | --- | --- | --- |
| NCI-H1734 | 0.913 | 0.812 | 0.86 | 0.988 | 0.948 | 0.179 | 0.197 | 0.199 | 0.169 | 0.183 | 0.893 | 0.864 | 0.864 | 0.784 | 0.866 | 0.817 | 0.748 | 0.914 | 0.894 | 0.903 |
| NCI-H1755 | 1.03 | 0.905 | 0.933 | 0.972 | 0.926 | 0.489 | 0.403 | 0.517 | 0.354 | 0.432 | 0.906 | 0.797 | 0.854 | 0.922 | 0.842 | 1.02 | 0.838 | 0.933 | 0.972 | 0.878 |
| NCI-H1793 | 0.331 | 0.32 | 0.404 | 0.389 | 0.547 | 0.357 | 0.197 | 0.16 | 0.15 | 0.194 | 0.821 | 0.618 | 0.624 | 0.661 | 0.534 | 0.774 | 0.758 | 1.06 | 0.941 | 0.964 |
| NCI-H1915 | 0.783 | 0.773 | 0.84 | 0.831 | 0.76 | 0.756 | 0.788 | 0.94 | 1.12 | 0.915 | 1.07 | 1.11 | 1.15 | 1.1 | 1.12 | 1.11 | 1.13 | 1.11 | 1.09 | 1.11 |
| NCI-H1944 | 0.958 | 0.955 | 1.06 | 0.951 | 1.01 | 0.772 | 0.676 | 0.64 | 0.866 | 0.831 | 0.951 | 0.936 | 0.775 | 0.89 | 0.785 | 1.12 | 1.09 | 1.16 | 1.11 | 1.19 |
| NCI-H1975 | 1.08 | 1.05 | 1.15 | 1.03 | 1.22 | 0.296 | 0.142 | 0.257 | 0.281 | 0.234 | 0.942 | 0.866 | 0.988 | 1.05 | 0.97 | 0.938 | 0.949 | 0.92 | 1.04 | 1.06 |
| NCI-H1993 | 0.931 | 0.779 | 0.879 | 1.03 | 0.893 | 0.943 | 0.789 | 0.846 | 0.864 | 0.928 | 0.867 | 0.711 | 0.735 | 0.887 | 0.79 | 0.707 | 0.719 | 0.683 | 0.718 | 0.735 |
| NCI-H2009 | 1.16 | 1.22 | 1.21 | 1.13 | 1.25 | 0.94 | 0.964 | 1.09 | 1.1 | 0.999 | 1.19 | 1.21 | 1.24 | 1.16 | 1.18 | 1.2 | 1.2 | 1.28 | 1.23 | 1.14 |
| NCI-H2023 | 1.09 | 0.985 | 1.03 | 0.974 | 1.03 | 0.75 | 0.657 | 0.784 | 0.899 | 0.642 | 0.806 | 0.739 | 0.749 | 0.779 | 0.776 | 0.618 | 0.65 | 0.697 | 0.643 | 0.728 |
| NCI-H2085 | 1.03 | 1.04 | 1.25 | 1.03 | 1.2 | 0.612 | 0.44 | 0.447 | 0.416 | 0.413 | 1.09 | 1.02 | 0.932 | 0.931 | 0.98 | 0.891 | 0.788 | 0.938 | 0.941 | 0.883 |
| NCI-H2087 | 0.972 | 0.938 | 1.04 | 1.16 | 1.04 | 0.187 | 0.195 | 0.175 | 0.19 | 0.329 | 1.21 | 1.21 | 1.18 | 1.11 | 0.972 | 1.01 | 0.887 | 0.893 | 0.951 | 0.965 |
| NCI-H2126 | 0.859 | 0.804 | 0.848 | 0.884 | 0.833 | 0.908 | 0.838 | 0.823 | 0.96 | 0.931 | 1.21 | 1.11 | 1.33 | 1.08 | 1.1 | 0.694 | 0.634 | 0.681 | 0.649 | 0.747 |
| NCI-H2228 | 0.671 | 0.717 | 1.04 | 0.78 | 1.16 | 0.24 | 0.122 | 0.162 | 0.185 | 0.112 | 0.809 | 0.862 | 0.839 | 0.969 | 0.834 | 0.958 | 0.647 | 0.706 | 0.632 | 0.703 |
| NCI-H2347 | 0.784 | 0.81 | 0.689 | 0.851 | 0.702 | 0.308 | 0.342 | 0.531 | 0.729 | 0.361 | 0.936 | 0.663 | 0.885 | – | 0.683 | 1.05 | 0.84 | 0.932 | 0.994 | 0.895 |
| NCI-H2405 | 1.03 | 0.753 | 0.857 | 0.914 | 0.8 | 0.763 | 0.613 | 0.671 | 0.663 | 0.579 | 1.11 | 0.975 | 1.05 | 1.02 | 1.05 | 0.923 | 0.806 | 0.92 | 0.98 | 0.968 |
| NCI-H3122 | 1.03 | 0.994 | 1.01 | 1.04 | 1.03 | 0.11 | 0.0839 | 0.104 | 0.109 | 0.0905 | 0.92 | 0.934 | 0.945 | 0.985 | 1.03 | 1.05 | 1 | 0.953 | 1.05 | 1.07 |
